Tests used:
Assay in all cases: Bliss excess, mean over the matrix (fraction); higher = more synergy
[1] = system: NCI-H2141 (Small Cell Lung Carcinoma)
How it was run: (§1)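 Cell lines grown in DMEM/F12 or RPMI with 10% FBS were plated in 1536-well plates and held 24 hours at 37°C, 5% CO2 before 72 hours of exposure to two-drug dose matrices, with DMSO typically at 0.2%. CellTiter-Glo 2.0 luminescence gave viability, which was converted to inhibition. Vehicle wells were set to 0 and blank wells to 1. Combination Emax is the second-highest inhibition in the matrix, and Bliss excess is the observed combination effect minus the expected EA + EB − EA·EB, where EA and EB are the single-agent effects.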

[2] = system: NCI-H1650 (Lung Adenocarcinoma)
How it was run: as §1

[3] = system: BICR22 (Oral Cavity Carcinoma)
How it was run: as §1

[4] = system: OS-RC-2 (Kidney Carcinoma)
How it was run: as §1

[5] = system: SISO (Cervical Carcinoma)
How it was run: as §1

[6] = system: JSC-1 (B-Cell Non-Hodgkin's Lymphoma)
How it was run: as §1

[7] = system: KARPAS-422 (B-Cell Non-Hodgkin's Lymphoma)
How it was run: as §1

[8] = system: ONS-76 (Other Solid Carcinomas)
How it was run: as §1

8-MG-BA (Glioblastoma) = system: 8-MG-BA (Glioblastoma)
How it was run: as §1

NCI-H2591 (Mesothelioma) = system: NCI-H2591 (Mesothelioma)
How it was run: as §1

FU97 (Gastric Carcinoma) = system: FU97 (Gastric Carcinoma)
How it was run: as §1

ARH-77 (Non-Cancerous) = system: ARH-77 (Non-Cancerous)
How it was run: as §1

IGR-37 (Melanoma) = system: IGR-37 (Melanoma)
How it was run: as §1

[9] = system: HCC1954 (Breast Carcinoma)
How it was run: as §1

[10] = system: CAL-29 (Bladder Carcinoma)
How it was run: as §1

LN-405 (Glioblastoma) = system: LN-405 (Glioblastoma)
How it was run: as §1

[11] = system: SK-MG-1 (Low Grade Glioma)
How it was run: as §1

U-2-OS (Osteosarcoma) = system: U-2-OS (Osteosarcoma)
How it was run: as §1

[12] = system: SK-MES-1 (Squamous Cell Lung Carcinoma)
How it was run: as §1

A498 (Kidney Carcinoma) = system: A498 (Kidney Carcinoma)
How it was run: as §1

Row | SMILES | Bliss excess [1] | Bliss excess [2] | Bliss excess [3] | Bliss excess [4] | Bliss excess [5] | Bliss excess [6] | Bliss excess [7] | Bliss excess [8] | Bliss excess (8-MG-BA (Glioblastoma)) | Bliss excess (NCI-H2591 (Mesothelioma)) | Bliss excess (FU97 (Gastric Carcinoma)) | Bliss excess (ARH-77 (Non-Cancerous)) | Bliss excess (IGR-37 (Melanoma)) | Bliss excess [9] | Bliss excess [10] | Bliss excess (LN-405 (Glioblastoma)) | Bliss excess [11] | Bliss excess (U-2-OS (Osteosarcoma)) | Bliss excess [12] | Bliss excess (A498 (Kidney Carcinoma))
1 | C[C@@H]1COCCN1c1cc(C2([S@](C)(=N)=O)CC2)nc(-c2ccnc3[nH]ccc23)n1 [AZD6738] + O=C(c1cc(Cc2n[nH]c(=O)c3ccccc23)ccc1F)N1CCN(C(=O)C2CC2)CC1 [Olaparib] (first compound max 10 µM, 7x7, partner max 10 µM) | 0.0682 | -0.0152 | 0.003 | -0.0085 | 0.0221 | -0.0254 | -0.0539 | -0.0284 | 0.0521 | 0.0123 | 0.023 | -0.0297 | -0.0475 | 0.0028 | -0.0405 | 0.0005 | 0.0121 | 0.0257 | -0.0324 | -0.0403
2 | Cc1cc2ncnn2cc1Nc1ncc2c(n1)n(C1CCOCC1)c(=O)n2C [AZD7648] + C=CCn1c(=O)c2cnc(Nc3ccc(N4CCN(C)CC4)cc3)nc2n1-c1cccc(C(C)(C)O)n1 [AZD1775] (first compound max 10 µM, partner max 1 µM) | -0.0515 | 0.0097 | -0.0323 | -0.0474 | -0.0005 | -0.0166 | -0.187 | -0.0046 | -0.0114 | 0.0043 | 0.0004 | -0.0575 | -0.0007 | 0.0065 | -0.0241 | -0.0402 | 0.009 | 0.0232 | 0.0167 | 0.0207
3 | Cc1cc2ncnn2cc1Nc1ncc2c(n1)n(C1CCOCC1)c(=O)n2C [AZD7648] + CCN(CCO)CCCOc1ccc2c(Nc3cc(CC(=O)Nc4cccc(F)c4)[nH]n3)ncnc2c1 [AZD2811] (first compound max 10 µM, 7x7, partner max 1 µM) | 0.0625 | 0.0142 | 0.0239 | 0.0201 | 0.0662 | 0.0813 | -0.0417 | 0.0443 | 0.0664 | 0.0506 | -0.0667 | 0.0348 | 0.0315 | 0.0561 | 0.0545 | -0.0206 | 0.0477 | 0.0294 | -0.0011 | -0.0049
4 | Cc1cc2ncnn2cc1Nc1ncc2c(n1)n(C1CCOCC1)c(=O)n2C [AZD7648] + CN(C)CCCOc1ccc(-c2ccc3ncc4c(c3c2)n(C2CCOCC2)c(=O)n4C)cn1 [AZD0156] (first compound max 10 µM, 7x7, partner max 1 µM) | 0.0033 | -0.0133 | -0.0192 | 0.0028 | 0.0339 | 0.0412 | -0.138 | -0.0014 | 0.029 | -0.0089 | -0.0915 | -0.049 | 0.0285 | 0.0111 | -0.0282 | -0.0215 | 0.0047 | 0.0103 | 0.0394 | -0.0212
5 | Cc1cc2ncnn2cc1Nc1ncc2c(n1)n(C1CCOCC1)c(=O)n2C [AZD7648] + C[C@@H]1COCCN1C2=NC(=NC(=C2)C3(CC3)[S@](=N)(=O)C)C4=C5C=CNC5=NC=C4 [AZD6738] (first compound max 10 µM, 7x7, partner max 10 µM) | 0.0088 | 0.0308 | 0.0114 | -0.0077 | 0.0202 | 0.0038 | -0.0856 | -0.0282 | 0.0602 | 0.04 | -0.0017 | -0.0463 | -0.0228 | 0.0568 | -0.012 | -0.0881 | 0.0011 | 0.0173 | -0.0084 | 0.0313
6 | Cc1cc2ncnn2cc1Nc1ncc2c(n1)n(C1CCOCC1)c(=O)n2C [AZD7648] + O=C(c1cc(Cc2n[nH]c(=O)c3ccccc23)ccc1F)N1CCN(C(=O)C2CC2)CC1 [Olaparib] (first compound max 10 µM, 7x7, partner max 10 µM) | -0.0603 | -0.0494 | -0.0548 | -0.0486 | -0.0226 | -0.0148 | -0.0358 | -0.0419 | -0.0184 | -0.0403 | -0.0879 | 0.0393 | -0.057 | -0.045 | -0.0288 | -0.0421 | -0.0455 | -0.0136 | -0.0323 | -0.0268
7 | NC1(C(=O)N[C@@H](CCO)c2ccc(Cl)cc2)CCN(c2ncnc3[nH]ccc23)CC1 [Capivasertib] + CC(=O)c1c(C)c2cnc(Nc3ccc(N4CCNCC4)cn3)nc2n(C2CCCC2)c1=O [Palbociclib] (first compound max 10 µM, 7x7, partner max 10 µM) | -0.0936 | -0.0223 | -0.0329 | 0.0249 | 0.0057 | -0.0107 | -0.012 | 0.027 | -0.0501 | -0.0717 | -0.0168 | -0.0211 | -0.0344 | -0.0292 | 0.0198 | -0.0295 | -0.0303 | 0.0197 | 0.0137 | -0.0294
8 | NC1(C(=O)N[C@@H](CCO)c2ccc(Cl)cc2)CCN(c2ncnc3[nH]ccc23)CC1 [Capivasertib] + CC(C)n1c(=O)n(C)c2cnc3cc(F)c(-c4ccc(OCCCN5CCCCC5)nc4)cc3c21 [AZD1390] (first compound max 10 µM, 7x7, partner max 0.3 µM) | -0.0051 | -0.0219 | -0.018 | -0.0779 | -0.0782 | -0.0888 | -0.0685 | -0.0894 | -0.0557 | -0.0804 | -0.0099 | -0.0509 | -0.0528 | -0.056 | -0.0702 | -0.0912 | -0.111 | -0.0453 | -0.0874 | -0.0632
9 | NC1(C(=O)N[C@@H](CCO)c2ccc(Cl)cc2)CCN(c2ncnc3[nH]ccc23)CC1 [Capivasertib] + CCN(CCO)CCCOc1ccc2c(Nc3cc(CC(=O)Nc4cccc(F)c4)[nH]n3)ncnc2c1 [AZD2811] (first compound max 10 µM, 7x7, partner max 1 µM) | -0.0237 | 0.0052 | -0.0012 | -0.0136 | 0.0229 | 0.0082 | -0.0291 | -0.0191 | 0.0289 | -0.0025 | -0.004 | -0.0156 | 0.0123 | 0.0073 | -0.0319 | -0.0767 | 0.0626 | -0.001 | 0.0121 | -0.0548
10 | NC1(C(=O)N[C@@H](CCO)c2ccc(Cl)cc2)CCN(c2ncnc3[nH]ccc23)CC1 [Capivasertib] + COc1nnc2ccc(N3CCC(c4ccc(OCCN5CCN(C)C(=O)[C@H]5C)cc4)CC3)nn12 [AZD5153] (first compound max 10 µM, 7x7, partner max 1 µM) | 0.0061 | 0.0322 | 0.024 | 0.117 | 0.009 | -0.0312 | -0.0511 | 0.0234 | -0.0338 | 0.0183 | -0.0154 | -0.0253 | 0.0011 | 0.0641 | 0.0937 | -0.013 | 0.0477 | 0.0156 | 0.046 | 0.0826
11 | NC1(C(=O)N[C@@H](CCO)c2ccc(Cl)cc2)CCN(c2ncnc3[nH]ccc23)CC1 [Capivasertib] + C[C@@H]1COCCN1C2=NC(=NC(=C2)C3(CC3)[S@](=N)(=O)C)C4=C5C=CNC5=NC=C4 [AZD6738] (first compound max 10 µM, 7x7, partner max 10 µM) | 0.0049 | -0.0754 | -0.0608 | -0.0398 | -0.0474 | 0.0036 | -0.0575 | -0.0636 | -0.004 | 0.0021 | -0.0176 | -0.0375 | 0.0138 | 0.0105 | -0.069 | -0.0413 | -0.034 | -0.0326 | -0.058 | 0.0375
12 | NC1(C(=O)N[C@@H](CCO)c2ccc(Cl)cc2)CCN(c2ncnc3[nH]ccc23)CC1 [Capivasertib] + Cn1cnc2c(F)c(Nc3ccc(Br)cc3Cl)c(C(=O)NOCCO)cc21 [Selumetinib] (first compound max 10 µM, 7x7, partner max 10 µM) | -0.051 | -0.0203 | 0.114 | -0.0412 | 0.0089 | 0.0954 | 0.0608 | 0.0914 | 0.0362 | -0.0052 | 0.0653 | 0.0614 | -0.0258 | 0.0405 | -0.0058 | -0.0051 | 0.0059 | 0.0009 | 0.0571 | -0.0108
13 | Cc1nc(Nc2ncc(C(=O)Nc3c(C)cccc3Cl)s2)cc(N2CCN(CCO)CC2)n1 [Dasatinib] + CC(=O)Nc1cccc(-n2c(=O)n(C3CC3)c(=O)c3c(Nc4ccc(I)cc4F)n(C)c(=O)c(C)c32)c1 [Trametinib] (first compound max 2 µM, 7x7, partner max 1 µM) | -0.0362 | -0.0167 | -0.0037 | -0.0396 | -0.0267 | -0.117 | -0.0371 | -0.0206 | 0.0219 | -0.0757 | 0.0039 | -0.0311 | -0.121 | 0.0318 | 0.0133 | -0.0347 | -0.0654 | -0.0411 | 0.0198 | -0.143
14 | COc1cccc2c1C(=O)c1c(O)c3c(c(O)c1C2=O)C[C@@](O)(C(=O)CO)C[C@@H]3O[C@H]1C[C@H](N)[C@H](O)[C@H](C)O1 [Doxorubicin] + Cc1cc2ncnn2cc1Nc1ncc2c(n1)n(C1CCOCC1)c(=O)n2C [AZD7648] (first compound max 1 µM, 7x7, partner max 10 µM) | 0.0099 | -0.0002 | 0.0744 | -0.0114 | 0.0937 | 0.063 | 0.0699 | 0.0314 | 0.0675 | 0.0556 | -0.0094 | 0.0783 | 0.0631 | 0.0849 | 0.0489 | -0.0125 | 0.133 | 0.0234 | 0.0477 | 0.0163
15 | COc1cc2ncnc(Nc3ccc(F)c(Cl)c3)c2cc1OCCCN1CCOCC1 [Gefitinib] + CC(C)n1c(=O)n(C)c2cnc3cc(F)c(-c4ccc(OCCCN5CCCCC5)nc4)cc3c21 [AZD1390] (first compound max 10 µM, 7x7, partner max 0.3 µM) | -0.0464 | -0.0477 | -0.013 | -0.0817 | -0.0627 | -0.0911 | -0.0363 | -0.0386 | -0.0604 | -0.0801 | -0.0177 | -0.0785 | -0.0865 | -0.0366 | -0.104 | -0.076 | -0.078 | -0.0496 | -0.0755 | -0.11
